Assay results from patent publication US10689377B2 (Mirati Therapeutics, Inc., priority 2017, dated 2020).
Read-outs that look alike come from different tables or passages of the source.

How the values were obtained:
[1] = In vitro stability in human whole blood; type: in vitro ADME; settings: male, whole blood diluted to 50% with PBS, 37° C.
Source text: Materials: The following reagents were used as received: acetonitrile (HPLC grade, Burdick & Jackson, Madison, Wis.), phosphate buffered saline (PBS), pH 7.4 (Sigma-Aldrich, Co., St. Louis, Mo.), water (HPLC grade, JT Baker, Phillipsburg, N.J.), DMSO (EM Science, Merck KGaA, Darmstadt, Germany) and isopropanol (IPA, reagent grade, EMD Chemicals, Gibbstown, N.J.). Propantheline and esmolol (Sigma-Aldrich) were used as the positive control compounds in the assay. Diazepam (Sigma-Aldrich) was used as an internal standard for quantitation. Human whole blood was obtained from BioIVT (Westbury, N.Y.) […]. All other reagents and solvents were of the highest analytical grade supplied by Sigma (St. Louis, Mo.) and were used as received.
Blood Incubations: The in vitro stability of representative KRas G12C inhibitor compounds of the present invention in the presence whole blood was conducted in the following manner. Esmolol or propantheline, which are known to undergo ester hydrolysis by esterases in blood and plasma, were used as the positive controls in the assays. A 10 mM stock solution of propantheline, esmolol, or a compound of the present invention in DMSO was diluted to 500 μM with DMSO. Aliquots of whole blood (600 μL), in triplicate, were placed in the appropriate wells of a polypropylene 96-deep well plate (Axygen Scientific, Union City, Calif.). The blood was diluted to 50% using PBS, pH 7.4 (600 μL). The diluted blood was pre-incubated for 15 minutes at 37° C. Each well was dosed with 12 μL of the 500 μM DMSO stock simultaneously for a final test concentration of 5 μM. The plates were mixed at 600 rpm for 10 seconds on a plate shaker (IKA MTS 2/4 Digital Microtiter Shaker, VWR). Aliquots of 100 μL from each well of whole blood were transferred to three separate 96-deep well plates labeled 0, 60, or 240 minutes. At the end of each designated time point, the red blood cells were lysed with 100 μL of water, mixed at 600 rpm for one minute, and stopped with 800 μL of acetonitrile containing IS (0.625 μM diazepam). The plates were mixed on the plate shaker at 600 rpm for one minute and spun in a centrifuge at 2095×g for 7 minutes at room temperature using an Allegra benchtop centrifuge (Beckman Coulter, Fullerton, Calif.). Supernatant (100 μL) was transferred to a shallow 96-well plate (Costar) using a liquid sample handling system (Apricot, Perkin-Elmer, Boston, Mass.). The addition of 100 μL of water was added to each sample of supernatant for a final volume of 200 μL. The plates were sealed and the contents of each well were analyzed by LC-MS/MS.
Analytical quantitation: The LC-MS/MS system was comprised of an HTS-PAL autosampler (Leap Technologies, Carrboro, N.C.), an HP1200 HPLC (Agilent, Palo Alto, Calif.), and an API4000 triple quadrupole mass spectrometer (PE Sciex, a division of Applied Biosystems, Foster City, Calif.). […] The total run time, including re-equilibration, for a single injection was 2 minutes. Mass spectrometric detection of the analytes was accomplished using the ESI ionization mode. Ion current was optimized during infusion of a stock solution of propantheline, esmolol, or the representative test compound. Analyte responses, including the IS were measured by multiple reaction monitoring (MRM) of transitions unique to each compound.
Calculations: Data were acquired and peak areas were calculated for test compounds and the internal standard using Analyst 1.6.2 software (Sciex). The mean peak area ratios were calculated by averaging the peak area ratios (n=3) of each test compound and the IS for each sample.
Peak area tables were exported to BioAssay Enterprise (CambridgeSoft, Cambridge, Mass.), where the average analyte-to-internal standard peak area ratios were used to calculate percent remaining (% REM) and half-life (t1/2). Percent remaining (f) was calculated by determining the ratio of the peak area ratio at each time point to the peak area ratio of the time-zero samples. […]

KRas G12C = KRas G12C (Homo sapiens, UniProt P01116, G12C); test: Cellular inhibition of KRas G12C measured by Phospho-ERK in NCI-H358 cells; type: cell-based; settings: pERK(Thr202/Tyr204) normalized with GAPDH, NCI-H358 cells, 3 hours; read-out: IC50
Sequence of KRas G12C (P01116 1-188 isoform P01116-2 G12C): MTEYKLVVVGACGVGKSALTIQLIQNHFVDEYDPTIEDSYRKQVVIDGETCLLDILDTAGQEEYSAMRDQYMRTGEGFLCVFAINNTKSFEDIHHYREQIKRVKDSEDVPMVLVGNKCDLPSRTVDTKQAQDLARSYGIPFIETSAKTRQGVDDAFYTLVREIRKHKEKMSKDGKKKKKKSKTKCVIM
In short: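 Readout is pERK(Thr202/Tyr204) immunofluorescence normalized to GAPDH, expressed as percent of DMSO control and fitted with a 4-parameter curve for IC50. Attached NCI-H358 cells received compound for 3 hours in 0.5% DMSO, followed by fixation and methanol permeabilization.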

[2] = pH 7.4, human whole blood diluted to 50% with PBS, 5 μM, 240-minute incubation, read-out: Compound Half-life

SMILES	half-life at 5 µM [1, 2]	IC50 (KRas G12C)	half-life at 5 µM ([1]; pH 7.4, human whole blood, positive control, read-out: half life)
CN(C/C=C/C(=O)N1CCN(c2nc(OC[C@@H]3CCCN3C)nc3c2CCN(c2cccc4cccc(Cl)c24)C3)C[C@@H]1CC#N)CC(F)(F)F [Example 482, 2-[(2S)-4-[7-(8-chloro-1-naphthyl)-2-[[(2S)-1-methylpyrrolidin-2-yl]methoxy]-6,8-dihydro-5H-pyrido[3,4-d]pyrimidin-4-yl]-1-[(E)-4-[methyl(2,2,2-trifluoroethyl)amino]but-2-enoyl]piperazin-2-yl]acetonitrile]	> 33.3 h	0.1 to 1000 nM	–
CN1CCC[C@H]1COc1nc2c(c(N3CCN(C(=O)/C=C/C(F)F)[C@@H](CC#N)C3)n1)CCN(c1cccc3cccc(Cl)c13)C2 [Example 484, 2-[(2S)-4-[7-(8-chloro-1-naphthyl)-2-[[(2S)-1-methylpyrrolidin-2-yl]methoxy]-6,8-dihydro-5H-pyrido[3,4-d]pyrimidin-4-yl]-1-[(E)-4,4-difluorobut-2-enoyl]piperazin-2-yl]acetonitrile]	≤ 3.33 h	0.1 to 1000 nM	–
C=C(COC)C(=O)N1CCN(c2nc(OC[C@@H]3CCCN3C)nc3c2CCN(c2cccc4cccc(Cl)c24)C3)C[C@@H]1CC#N [Example 485, 2-[(2S)-4-[7-(8-chloro-1-naphthyl)-2-[[(2S)-1-methylpyrrolidin-2-yl]methoxy]-6,8-dihydro-5H-pyrido[3,4-d]pyrimidin-4-yl]-1-[2-(methoxymethyl)prop-2-enoyl]piperazin-2-yl]acetonitrile]	> 33.3 h	0.1 to 1000 nM	–
CN1CCC[C@H]1COc1nc2c(c(N3CCN(C(=O)/C=C/C(F)(F)F)[C@@H](CC#N)C3)n1)CCN(c1cccc3cccc(Cl)c13)C2 [Example 490, 2-((S)-4-(7-(8-chloronaphthalen-1-yl)-2-(((S)-1-methylpyrrolidin-2-yl)methoxy)-5,6,7,8-tetrahydropyrido[3,4-d]pyrimidin-4-yl)-1-((E)-4,4,4-trifluorobut-2-enoyl)piperazin-2-yl)acetonitrile]	≤ 3.33 h	0.1 to 1000 nM	–
Cc1cccc2cccc(N3CCc4c(nc(OC[C@@H]5CCCN5C)nc4N4CCN(C(=O)/C=C/C(F)(F)F)[C@@H](CC#N)C4)C3)c12 [Example 491, 2-((S)-4-(7-(8-methylnaphthalen-1-yl)-2-(((S)-1-methylpyrrolidin-2-yl)methoxy)-5,6,7,8-tetrahydropyrido[3,4-d]pyrimidin-4-yl)-1-((E)-4,4,4-trifluorobut-2-enoyl)piperazin-2-yl)acetonitrile]	≤ 3.33 h	0.1 to 1000 nM	–
COC/C=C/C(=O)N1CCN(c2nc(OC[C@H]3C[C@@H](OC)CN3C)nc3c2CCN(c2cccc4cccc(C)c24)C3)C[C@@H]1CC#N [Example 552, 2-[(2S)-1-[(E)-4-methoxybut-2-enoyl]-4-[2-[[(2R,4R)-4-methoxy-1-methyl-pyrrolidin-2-yl]methoxy]-7-(8-methyl-1-naphthyl)-6,8-dihydro-5H-pyrido[3,4-d]pyrimidin-4-yl]piperazin-2-yl]acetonitrile]	> 33.3 h	–	–
C=C(F)C(=O)N1CCN(c2nc(OC[C@H]3CCCN3C)nc3c2CCN(c2cccc4cccc(Cl)c24)C3)C[C@@H]1CC#N [Example 557, 2-[(2S)-4-[7-(8-Chloro-1-naphthyl)-2-[[(2R)-1-methylpyrrolidin-2-yl]methoxy]-6,8-dihydro-5H-pyrido[3,4-d]pyrimidin-4-yl]-1-(2-fluoroprop-2-enoyl)piperazin-2-yl]acetonitrile]	> 33.3 h	–	–
CC(C)[N+](C)(CCOC(=O)C1c2ccccc2Oc2ccccc21)C(C)C [Propantheline, reference compound]	≤ 3.33 h	–	1.63 h

Now from value to compound:

half-life at 5 µM [1, 2]	IC50 (KRas G12C)	half-life at 5 µM ([1]; pH 7.4, human whole blood, positive control, read-out: half life)	SMILES
> 33.3 h	0.1 to 1000 nM	–	CN(C)C/C=C/C(=O)N1CCN(c2nc(OC[C@@H]3CCCN3C)nc3c2CCN(c2cccc4ccccc24)C3)C[C@@H]1CC#N [Example 235, 2-((S)-1-((E)-4-(dimethylamino)but-2-enoyl)-4-(2-(((S)-1-methylpyrrolidin-2-yl)methoxy)-7-(naphthalen-1-yl)-5,6,7,8-tetrahydropyrido[3,4-d]pyrimidin-4-yl)piperazin-2-yl)acetonitrile]
3.33 to 16.7 h	0.1 to 1000 nM	–	CN1CCC[C@H]1COc1nc2c(c(N3CCN(C(=O)/C=C/CN4CCCCC4)[C@@H](CC#N)C3)n1)CCN(c1cccc3ccccc13)C2 [Example 236, 2-((S)-4-(2-(((S)-1-methylpyrrolidin-2-yl)methoxy)-7-(naphthalen-1-yl)-5,6,7,8-tetrahydropyrido[3,4-d]pyrimidin-4-yl)-1-(E-4-(piperidin-1-yl)but-2-enoyl)piperazin-2-yl)acetonitrile]
3.33 to 16.7 h	0.1 to 1000 nM	–	C=CC(=O)N1CCN(c2nc(OC[C@@H]3CCCN3C)nc3c2CCN(c2cccc4cccc(C)c24)C3)C[C@@H]1CC#N [Example 359, 2-[(2S)-4-[7-(8-methyl-1-naphthyl)-2-[[(2S)-1-methylpyrrolidin-2-yl]methoxy]-6,8-dihydro-5H-pyrido[3,4-d]pyrimidin-4-yl]-1-prop-2-enoyl-piperazin-2-yl]acetonitrile]
16.7 to 33.3 h	0.1 to 1000 nM	–	CN1CCC[C@H]1COc1nc2c(c(N3CCN(C(=O)/C=C/CN4CCOCC4)[C@@H](CC#N)C3)n1)CCN(c1cccc3cccc(Cl)c13)C2 [Example 367, 2-[(2S)-4-[7-(8-chloro-1-naphthyl)-2-[[(2S)-1-methylpyrrolidin-2-yl]methoxy]-6,8-dihydro-5H-pyrido[3,4-d]pyrimidin-4-yl]-1-[(E)-4-morpholinobut-2-enoyl]piperazin-2-yl]acetonitrile]
> 33.3 h	0.1 to 1000 nM	–	C/C=C/C(=O)N1CCN(c2nc(OC[C@@H]3CCCN3C)nc3c2CCN(c2cccc4cccc(C)c24)C3)C[C@@H]1CC#N [Example 372]
> 33.3 h	0.1 to 1000 nM	–	CN1CCC[C@H]1COc1nc2c(c(N3CCN(C(=O)/C=C/CF)[C@@H](CC#N)C3)n1)CCN(c1cccc3cccc(Cl)c13)C2 [Example 479, 2-[(2S)-4-[7-(8-chloro-1-naphthyl)-2-[[(2S)-1-methylpyrrolidin-2-yl]methoxy]-6,8-dihydro-5H-pyrido[3,4-d]pyrimidin-4-yl]-1-[(E)-4-fluorobut-2-enoyl]piperazin-2-yl]acetonitrile]
> 33.3 h	0.1 to 1000 nM	–	CN1CCC[C@H]1COc1nc2c(c(N3CCN(C(=O)/C=C/CN4CCC(F)C4)[C@@H](CC#N)C3)n1)CCN(c1cccc3cccc(Cl)c13)C2 (stereo partly drawn) [Example 480, 2-[(2S)-4-[7-(8-chloro-1-naphthyl)-2-[[(2S)-1-methylpyrrolidin-2-yl]methoxy]-6,8-dihydro-5H-pyrido[3,4-d]pyrimidin-4-yl]-1-[(E)-4-(3-fluoropyrrolidin-1-yl)but-2-enoyl]piperazin-2-yl]acetonitrile]
> 33.3 h	0.1 to 1000 nM	–	CN1CCC[C@H]1COc1nc2c(c(N3CCN(C(=O)/C=C/CN4CC(F)C4)[C@@H](CC#N)C3)n1)CCN(c1cccc3cccc(Cl)c13)C2 [Example 481, 2-[(2S)-4-[7-(8-chloro-1-naphthyl)-2-[[(2S)-1-methylpyrrolidin-2-yl]methoxy]-6,8-dihydro-5H-pyrido[3,4-d]pyrimidin-4-yl]-1-[(E)-4-(3-fluoroazetidin-1-yl)but-2-enoyl]piperazin-2-yl]acetonitrile]
